Source: patent publication US8993593B2, “N-(4-(6-fluoro-3,4-dihydroisoquinolin-2(1H)-yl)-2,6-dimethylphenyl)-3,3-dimethylbutanamide as potassium channel modulators” (Valeant Pharmaceuticals International, priority 2006, dated 2015)

How the values were obtained:
[1] = system: rat MES model of epilepsy; assay: Maximal electroshock seizure (MES) test, rat; format: in vivo; conditions: po; rat MES model, dosed orally 1 hour prior to testing; read-out: ED50, inhibition of seizures
Source text: The MES testing protocol is based on procedures established at the National Institute of Neurological Disorders and Stroke in conjunction with the Anticonvulsant Screening Program (ASP) at the University of Utah (White, H. S., Woodhead, J. H., Wilcox, K. S., Stables, J. P., Kupferberg, H. J and Wolf, H. H. 2002. “General Principles: Discovery and Preclinical Development of Antiepileptic Drugs,” in Antiepileptic Drugs, 5th Edition, R. H. Levy, ed.; R. H. Mattson, B. S. Meldrum, and E. Perucca. Philadelphia, Lippincott Williams & Wilkins.), The goal of the test rapid identification and characterization of the in vivo anticonvulsant activity of any compounds that have been shown active in PC-12 cellular based Rb^+ efflux assay.
Adult male CF-I albino mice (18-25 g, Charles River Laboratories) are exclusively used for in-house MES screen of compounds. Male Sprague-Dawley albino rats (100-125 g, Charles River Laboratories) are also used to test anticonvulsant compounds. Variability of test outcomes is reduced by using animals of the same sex, age, and weight. Animals are permitted to rest and recover from transit for at least 48 hr prior to experimentation. Animals are used for AED testing only once. In some instances, the animals may be anesthetized prior to blood collection and/or whole brain extraction for pharmacokinetic assay. All animals are maintained and handled as outlined in standard animal care guidelines.
In the experiments, testing compounds are prepared as suspensions in 0.5% methyl cellulose (Sigma, Cat #M0512, Viscosity 4000 cP at 20° C.) in water, regardless of solubility. Dry powder compounds are initially ground with a glass rod in a test tube in several drops of methyl cellulose to create a paste and to break down any large chunks. After several minutes of grinding, the volume of the suspension is increased to the final concentration desired. The suspension is then sonicated using a Branson sonicator model 3510 in a water bath at room temperature for 15 minutes. Compound suspensions are further vortexed prior to animal dosing. In some of the cases, DMSO is used to initially solubilize compounds in small volumes and then this solution is added to the 0.5% methyl cellulose solution, in order to create more even and less aggregated compound suspensions. The final concentration of DMSO is 3.75%, an amount with no apparent toxicity or neuroprotective effects in our usual rotarod and MES tests. Methyl cellulose/DMSO compound suspensions are identically prepared for intraperitoneally (i.p.) to mice or orally (p.o.) to rat dosing.
Initially the animals are weighed with an electronic scale and then marked. Data recording sheets are generated for each compound assessment. Mice or rats are dosed with the compound suspension at 0.01 mL/g of body weight. The typical injection volume range is between 180-250 μl for mice. Compounds are dosed by i.p. to mice using a 25 or 22 gauge needle, depending on the viscosity of the suspension. Rats are p.o. dosed using a flexible feeding tube, typically starting at a compound dose of 5 mg/kg.
A Rodent Electroconvulsive Stimulator (Model 200, Hamit-Darvin-Freesh, Snow Canyon Clinic, Ivins, Utah) is used for MES testing. A 60-Hz alternating current (50 mA for mice; 150 mA for rats) is delivered for 0.2 seconds through corneal electrodes to the mice. […] Animals are monitored for hind limb tonic extension as the end point for this test. Current delivery is recorded as a measure of overall seizure-induction potential. […]

KCNQ2 channels = biological target: T1, KCNQ2 channels (Homo sapiens, UniProt O43526); assay: Potassium ion efflux, KCNQ2 channels expressed in CHO cells; format: cell-based
T1 construct: expressed in transfected cells; host or cells: CHO cells
Method: Using natively expressed M-currents present in differentiated pheochromocytoma (PC-12) cells and CHO cells transfected with KCNQ2 and hERG potassium channels, the in vitro activity of compound A on potassium ion efflux was determined.
The EC50 values for retigabine and compound A on the activation of KCNQ2 channels expressed in CHO cells were determined on three separate occasions in triplicate.

[2] = Open field test (acute toxicity); conditions: Sprague-Dawley, in vivo, oral, rat, read-out: TD50, motor impairment
Source text: Before MES test, compound treated rats are visually observed for acute toxicity signs for approximately one minute in the open field test. Here, rats are gently placed into a plexiglass enclosure and are monitored for behavior consistent with toxicity including ataxia, trembling, hypoactivity (including failure to seek the walls), hypersensitivity, lack of exploratory behavior and lack of avoidance of the open area. […] Motor impairment, as judged by this test was not observed in the rat model and generated a TD50 value of greater than 5 mg/kg.

T1 sequence (O43526 whole entry): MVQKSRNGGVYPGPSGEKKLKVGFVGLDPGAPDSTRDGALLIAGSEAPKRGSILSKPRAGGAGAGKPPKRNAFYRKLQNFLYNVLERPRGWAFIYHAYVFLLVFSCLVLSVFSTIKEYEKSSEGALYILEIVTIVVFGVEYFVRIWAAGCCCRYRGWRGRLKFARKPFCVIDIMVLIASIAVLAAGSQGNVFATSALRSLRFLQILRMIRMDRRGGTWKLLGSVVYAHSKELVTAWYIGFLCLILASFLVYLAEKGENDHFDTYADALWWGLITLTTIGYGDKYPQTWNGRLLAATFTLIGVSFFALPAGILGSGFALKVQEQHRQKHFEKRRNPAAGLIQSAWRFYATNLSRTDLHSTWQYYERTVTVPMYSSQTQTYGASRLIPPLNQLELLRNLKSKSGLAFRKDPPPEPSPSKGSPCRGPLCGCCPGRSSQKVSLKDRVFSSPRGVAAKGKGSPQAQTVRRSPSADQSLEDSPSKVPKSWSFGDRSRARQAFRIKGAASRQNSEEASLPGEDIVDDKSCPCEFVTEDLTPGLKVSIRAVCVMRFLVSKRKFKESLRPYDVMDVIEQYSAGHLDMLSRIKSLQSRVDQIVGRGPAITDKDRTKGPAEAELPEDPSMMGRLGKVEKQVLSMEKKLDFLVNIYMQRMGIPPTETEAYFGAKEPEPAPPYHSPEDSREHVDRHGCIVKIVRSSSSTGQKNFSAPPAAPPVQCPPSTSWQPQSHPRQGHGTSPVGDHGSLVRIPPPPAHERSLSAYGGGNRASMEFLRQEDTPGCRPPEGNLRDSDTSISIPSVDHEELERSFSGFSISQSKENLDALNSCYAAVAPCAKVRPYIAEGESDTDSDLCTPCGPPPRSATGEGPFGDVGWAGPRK

SMILES: Cc1cc(N2CCc3cc(F)ccc3C2)cc(C)c1NC(=O)CC(C)(C)C [compound A, N-[4-(6-fluoro-3,4-dihydro-1H-isoquinolin-2-yl)-2,6-dimethylphenyl]-3,3-dimethyl butanamide]
- ED50 [1]: 1.1 mg/kg
- EC50 (KCNQ2 channels): 11 nM
- TD50 at 1 min [2]: > 5 mg/kg
